Assay results published in PubChem BioAssay (NCI).
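Protocol summary: plate cells (96-well), add compound at 5 concentrations, incubate 48 h, interpolate endpoints linearly. GI50 is the concentration that inhibits growth by half. Definition used: TGI = concentration required for complete inhibition of growth.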

Assays:
Assay in all cases: inhibition of tumour cell growth, NCI panel, 48 h
A498 renal = system: A498 renal
SK-MEL-2 melanoma = system: SK-MEL-2 melanoma
SK-MEL-28 melanoma = system: SK-MEL-28 melanoma
M14 melanoma = system: M14 melanoma
LOX IMVI melanoma = system: LOX IMVI melanoma
NCI-H522 lung = system: NCI-H522 lung
MALME-3M melanoma = system: MALME-3M melanoma
HL-60(TB) leukemia = system: HL-60(TB) leukemia
BT-549 breast = system: BT-549 breast
SR leukemia = system: SR leukemia
A549 NSCLC = system: A549 NSCLC
HOP-92 NSCLC = system: HOP-92 NSCLC
OVCAR-8 ovarian = system: OVCAR-8 ovarian
HS 578T breast = system: HS 578T breast
SK-OV-3 ovarian = system: SK-OV-3 ovarian
NCI-H460 lung = system: NCI-H460 lung
HOP-62 NSCLC = system: HOP-62 NSCLC
PC-3 prostate = system: PC-3 prostate
UACC-62 melanoma = system: UACC-62 melanoma
T-47D breast = system: T-47D breast
OVCAR-5 ovarian = system: OVCAR-5 ovarian
K-562 leukemia = system: K-562 leukemia
RXF 393 renal = system: RXF 393 renal
MDA-MB-435 = system: MDA-MB-435
SNB-75 CNS = system: SNB-75 CNS
HCT-15 colon = system: HCT-15 colon
MOLT-4 leukemia = system: MOLT-4 leukemia
786-0 renal = system: 786-0 renal
OVCAR-4 ovarian = system: OVCAR-4 ovarian
SF-539 CNS = system: SF-539 CNS
SNB-19 CNS = system: SNB-19 CNS
SK-MEL-5 melanoma = system: SK-MEL-5 melanoma
NCI/ADR-RES ovarian = system: NCI/ADR-RES ovarian
RPMI-8226 leukemia = system: RPMI-8226 leukemia
IGROV1 ovarian = system: IGROV1 ovarian
EKVX NSCLC = system: EKVX NSCLC
MCF7 breast = system: MCF7 breast
CAKI-1 renal = system: CAKI-1 renal
HCT-116 colon = system: HCT-116 colon
NCI-H23 lung = system: NCI-H23 lung
NCI-H226 lung = system: NCI-H226 lung
COLO 205 colon = system: COLO 205 colon
OVCAR-3 ovarian = system: OVCAR-3 ovarian
U251 CNS = system: U251 CNS
SF-268 CNS = system: SF-268 CNS
SF-295 CNS = system: SF-295 CNS
UO-31 renal = system: UO-31 renal
ACHN renal = system: ACHN renal
UACC-257 melanoma = system: UACC-257 melanoma
HT29 colon = system: HT29 colon
HCC-2998 colon = system: HCC-2998 colon
CCRF-CEM leukemia = system: CCRF-CEM leukemia
SN12C renal = system: SN12C renal
KM12 colon = system: KM12 colon
SW-620 colon = system: SW-620 colon
TK-10 renal = system: TK-10 renal
MDA-MB-231 breast = system: MDA-MB-231 breast
DU-145 prostate = system: DU-145 prostate

## O=Cc1cn(Cc2ccc(Cl)cc2)c2ccccc12
A498 renal
  GI50: 0.0342 µM
  TGI: 0.172 µM
SK-MEL-2 melanoma
  GI50: 8.49 µM
  TGI: 66.1 µM
SK-MEL-28 melanoma
  GI50: 33.6 µM
  TGI: > 100 µM
M14 melanoma
  GI50: 15.2 µM
  TGI: 72.5 µM
LOX IMVI melanoma
  GI50: 12.1 µM
  TGI: > 95 µM
NCI-H522 lung
  GI50: 73.2 µM
  TGI: > 100 µM
MALME-3M melanoma
  GI50: 14.3 µM
  TGI: 43.3 µM
HL-60(TB) leukemia
  GI50: 22.5 µM
  TGI: 72.8 µM
BT-549 breast
  GI50: 11.4 µM
  TGI: 49.2 µM
SR leukemia
  GI50: 16.5 µM
  TGI: > 79.4 µM
A549 NSCLC
  GI50: 13.4 µM
  TGI: > 100 µM
HOP-92 NSCLC
  GI50: 4.43 µM
  TGI: 49 µM
OVCAR-8 ovarian
  GI50: 23.5 µM
  TGI: > 100 µM
HS 578T breast
  GI50: 19.2 µM
  TGI: > 100 µM
SK-OV-3 ovarian
  GI50: 1.84 µM
  TGI: 44.8 µM
NCI-H460 lung
  GI50: 0.115 µM
  TGI: 11.2 µM
HOP-62 NSCLC
  GI50: 2.63 µM
  TGI: > 100 µM
PC-3 prostate
  GI50: 12.8 µM
  TGI: 73.2 µM
UACC-62 melanoma
  GI50: 1.32 µM
  TGI: 9.09 µM
T-47D breast
  GI50: 1.84 µM
  TGI: 69.7 µM
OVCAR-5 ovarian
  GI50: 0.082 µM
  TGI: 0.659 µM
K-562 leukemia
  GI50: 4.21 µM
  TGI: > 100 µM
RXF 393 renal
  GI50: 4.59 µM
  TGI: 51.8 µM
MDA-MB-435
  GI50: 23 µM
  TGI: > 100 µM
SNB-75 CNS
  GI50: 8.26 µM
  TGI: > 100 µM
HCT-15 colon
  GI50: 15.5 µM
  TGI: > 100 µM
MOLT-4 leukemia
  GI50: 17.9 µM
  TGI: > 82.7 µM
786-0 renal
  GI50: 13.6 µM
  TGI: 64.5 µM
OVCAR-4 ovarian
  GI50: 4.39 µM
  TGI: > 100 µM
SF-539 CNS
  GI50: 16.6 µM
  TGI: 50.3 µM
SNB-19 CNS
  GI50: 19.4 µM
  TGI: > 100 µM
SK-MEL-5 melanoma
  GI50: 8.18 µM
  TGI: 22.3 µM
NCI/ADR-RES ovarian
  GI50: 13.9 µM
  TGI: > 100 µM
RPMI-8226 leukemia
  GI50: 7.14 µM
  TGI: > 100 µM
IGROV1 ovarian
  GI50: 1.22 µM
  TGI: 39.4 µM
EKVX NSCLC
  GI50: 21 µM
  TGI: > 100 µM
MCF7 breast
  GI50: 4.12 µM
  TGI: > 67.2 µM
CAKI-1 renal
  GI50: 0.101 µM
  TGI: 3.42 µM
HCT-116 colon
  GI50: 4.83 µM
  TGI: 30 µM
NCI-H23 lung
  GI50: 8.37 µM
  TGI: > 100 µM
NCI-H226 lung
  GI50: 0.041 µM
  TGI: 0.251 µM
COLO 205 colon
  GI50: 2.17 µM
  TGI: 20.7 µM
OVCAR-3 ovarian
  GI50: 6.64 µM
  TGI: 61.7 µM
U251 CNS
  GI50: 13.3 µM
  TGI: > 100 µM
SF-268 CNS
  GI50: 21.4 µM
  TGI: > 100 µM
SF-295 CNS
  GI50: 0.992 µM
  TGI: 34.9 µM
UO-31 renal
  GI50: 3.35 µM
  TGI: 45.4 µM
ACHN renal
  GI50: 27.4 µM
  TGI: > 100 µM
UACC-257 melanoma
  GI50: 2.05 µM
  TGI: 7.44 µM
HT29 colon
  GI50: 24.4 µM
  TGI: > 100 µM
HCC-2998 colon
  GI50: 14.3 µM
  TGI: > 100 µM
CCRF-CEM leukemia
  GI50: 19.7 µM
  TGI: > 100 µM
SN12C renal
  GI50: 14.9 µM
  TGI: > 100 µM
KM12 colon
  GI50: 26.4 µM
  TGI: > 100 µM
SW-620 colon
  GI50: 13.2 µM
  TGI: > 100 µM
TK-10 renal
  GI50: 0.162 µM
  TGI: 1.52 µM
MDA-MB-231 breast
  GI50: 9.7 µM
  TGI: > 56.3 µM
DU-145 prostate
  GI50: 22.3 µM
  TGI: > 100 µM
